From patent publication US6559135B2, “Per-(3-6-anhydro)cyclodextrins derivatives, preparation and use thereof for separating ions” (Commissariat a l'Energie Atomique, priority 2000, dated 2003)

Tests used:
Type in all cases: binding
[1] = Complexation of Dy3+ followed by proton NMR; details: 1 mmol/l derivative, 4 mmol/l cation, aqueous solution
Procedure: (§1) Each complex is prepared by adding 4 mmol/l of the tested cation to 500 μl of an aqueous solution containing 1 mmol/l of the product from Example 1. The following cations were tested: Lu^3+, La^3+, Dy^3+, Eu^3+ and Co^2+.
(§2) The resulting complexes were then characterised by proton nuclear magnetic resonance spectrometry.

[2] = Complexation of Eu3+ followed by proton NMR; details: 1 mmol/l derivative, 4 mmol/l cation, aqueous solution
Procedure: as §1, §2

[3] = Complexation of Co2+ followed by proton NMR; details: 1 mmol/l derivative, 4 mmol/l cation, aqueous solution
Procedure: as §1, §2

[4] = Complexation of La3+ followed by proton NMR; details: 1 mmol/l derivative, 4 mmol/l cation, aqueous solution
Procedure: as §1, §2

[5] = Complexation of Lu3+ followed by proton NMR; details: 1 mmol/l derivative, 4 mmol/l cation, aqueous solution
Procedure: as §1, §2

[6] = Competition with EDTA in complexing Dy3+, proton NMR; details: 1 mmol/l derivative, 4 mmol/l cation and EDTA (large excess of EDTA), aqueous solution
Procedure: (§3) In this example, experiments were carried out to compare the derivative from Example 1 and ethylene diamine tetra acetate (EDTA) in complexing Dy^3+, Eu^3+ and Co^2+ ions, in order to get an idea of the force of the complexes prepared in Example 2.
(§4) With this in mind, 4 mmol/l of the tested cation and EDTA were added to 50 μl of an aqueous solution containing 1 mmol/l of the derivative from Example 1. The resulting products were than characterised by proton NMR spectrometry.

[7] = Competition with EDTA in complexing Eu3+, proton NMR; details: 1 mmol/l derivative, 4 mmol/l cation and EDTA (large excess of EDTA), aqueous solution
Procedure: as §3, §4

[8] = Competition with EDTA in complexing Co2+, proton NMR; details: 1 mmol/l derivative, 4 mmol/l cation and EDTA (large excess of EDTA), aqueous solution
Procedure: as §3, §4

[9] = Complexation of physiological cation Na+, proton NMR; details: same procedure as Example 2: 1 mmol/l derivative, 4 mmol/l cation
Procedure: as §1
(§5) In this example, the complexation properties of the derivative from Example 1 were tested vis à vis physiological cations: calcium, sodium and potassium, all of which are required in the development of living organisms.
(§6) The same procedure was used as given in Example 2, and the resulting products were characterised by proton NMR spectrometry.

[10] = Complexation of physiological cation K+, proton NMR; details: same procedure as Example 2: 1 mmol/l derivative, 4 mmol/l cation
Procedure: as §1, §5, §6

[11] = Complexation of physiological cation Ca2+, proton NMR; details: same procedure as Example 2: 1 mmol/l derivative, 4 mmol/l cation
Procedure: as §1, §5, §6

Hexakis-(3,6-anhydro-2-O-carboxymethyl)-cyclomaltohexaose [Example 1]
interaction with Dy^3+ (change of proton NMR spectrum) [1]: very strong interaction | interaction with Eu^3+ (change of proton NMR spectrum) [2]: very strong interaction | interaction with Co^2+ (change of proton NMR spectrum) [3]: very strong interaction | interaction with La^3+ (change of proton NMR spectrum) [4]: H6 and H6′ protons located on the anhydro bridge can still be observed | interaction with Lu^3+ (change of proton NMR spectrum) [5]: several stoichiometrically different complexes co-exist in solution | strength of Dy^3+ complex compared to EDTA [6]: complexes the cations more strongly than EDTA | strength of Eu^3+ complex compared to EDTA [7]: complexes the cations more strongly than EDTA | strength of Co^2+ complex compared to EDTA [8]: complexes the cations more strongly than EDTA | effect of Na^+ on proton NMR peaks of the derivative (complexation) [9]: hardly affected | effect of K^+ on proton NMR peaks of the derivative (complexation) [10]: hardly affected | effect of Ca^2+ on proton NMR peaks of the derivative (complexation) [11]: hardly affected
